Assay results: article PMC9146423, “Discovery of Nitro-azolo[1,5-a]pyrimidines with Anti-Inflammatory and Protective Activity against LPS-Induced Acute Lung Injury” (Pharmaceuticals, 2022)

How the values were obtained:
[1] = Cytotoxicity, lactate dehydrogenase (LDH) activity in cell supernatants; type: cell-based, mouse; details: male, C57bl/6j, mouse, LPS-stimulated peritoneal macrophages
Procedure: (§1) Peritoneal macrophages (PM) were isolated from the peritoneal exudate of 30 male C57bl/6j mice. To accumulate PM, 1 mL of 3% peptone solution was injected intraperitoneally. After 3 days, the mice were euthanized by cervical dislocation. Cells of peritoneal exudate were obtained by aseptic washing of the abdominal cavity with 5 mL of sterile Hanks’s solution (+4–6 °C) without calcium and magnesium ions. The total number and viability of cells were assessed in a Goryaev counting chamber (Russia) with a 0.4% trypan blue staining (Sigma-Aldrich, St. Louis, MO, USA). The cell concentration was adjusted to 1.0 × 10^6 cells/mL in DMEM (Gibco) supplemented with 2 mM L-glutamine (Gibco, Waltham, MA, USA), 10% heat-inactivated fetal bovine serum (BioClot, Bavaria, Germany), 100 U/mL penicillin, and […] streptomycin (Gibco) and plated 200 μL/well in 96-well transparent plates (SPL Life Sciences Co., Ltd., Pocheon-si, Korea). After 2 h at 37 °C in a humidified atmosphere with 5% CO2, the wells were washed to remove non-adherent cells. After 24 h of incubation, 20 μL of the supernatants were substituted with 20 μL of solutions of test compounds, followed by E. coli O127:B8 LPS (100 ng/mL final concentration) after 30 min. The experiments were run in 3 independent replicates.
(§2) The activity of lactate dehydrogenase (LDH) in a cell culture medium served as a marker of membrane permeability and cell death. […] Then, 25 μL of a 6.48 mM pyruvate solution was added to the mixture. The optical density was followed at a wavelength of 340 nm for 20 min. The MTT-test was performed 24 h after incubations of cells with tested compounds. Briefly, 20 μL of MTT solution was added to each well, incubated at 37 °C in a humidified atmosphere containing 5% CO2 for 4 h. The culture medium was removed, the cells were lysed, and formazan crystals were dissolved in 150 μL DMSO. The plates were shaken at room temperature for 10 min, and the optical density was measured in a microplate reader Infinite M200 PRO (Tecan, Grödig, Austria) at a wavelength of 565 nm.

[2] = tested on: peritoneal macrophages of C57bl/6j mice; test: as above; type: cell-based, mouse
Procedure: as §1, §2

C57BL/6J mice = test: LPS-induced acute lung injury in mice; type: in vivo, mouse
Procedure: The randomization of C57bl/6j mice into experimental and control groups was based on body weight and behavioral activity assessed in an open field test 24 h before the start of the experiment. The next day, mice were treated with vehicle or test compounds 1 h before intratracheal instillation of LPS solution in sterile saline.
The randomization of C57BL/6J mice was performed by body weight and motor activity in an open field test. Dexamethasone (5 mg/kg) and 9g (30 mg/kg) were administered intraperitoneally in 10 mL/kg sterile saline. The control animals received an equal volume of the vehicle. After 1 h, the mice were anesthetized with isoflurane inhalation until their breathing rate was decreased. The mice were suspended by the front incisors on an inclined surgical table, the tongue was pulled out with narrow curved tweezers, and 1 mg/mL of E. coli O127:B8 LPS (Sigma-Aldrich, St. Louis, MO, USA) in 1 mL/kg sterile saline was injected into the back of the oropharynx. Intact control animals received an equal volume of sterile saline similarly.
The animals were placed in the center of a round open field with an arena of 44 cm diameter and 32 cm wall height under 300 lux lighting. During 5 min of observation, horizontal motor activity, vertical motor activity, time spent in the central part, the number of exits to the central part, and exploratory activity parameters were recorded. Body temperature was determined rectally.
The mice were anesthetized with 500 mg/kg chloral hydrate (Sigma-Aldrich, St. Louis, MO, USA) intraperitoneally 24 h after LPS administration. Blood was taken by intracardiac puncture in test tubes with heparin. The blood samples were centrifuged at 1000 g and 4 °C for 15 min on a 2–16PK centrifuge (Sigma, Germany), and plasma was separated and stored at −80 °C until the assay. Thoracotomy was performed, the ligature was applied to the left bronchus and the trachea was cannulated with a 20 G needle. The right lung was washed twice with 0.7 mL of warm sterile saline. After combining aliquots, the bronchoalveolar lavage (BAL) was centrifuged at 800 g and 4 °C for 10 min. The supernatant was separated and stored at −80 °C until the assay. The residual cell pellet was resuspended in 50 μL of PBS for further study. The left lung was washed in saline and placed in 10% buffered formalin for morphological evaluation.
The total number of leukocytes in heparinized blood was determined after staining with methylene blue in Goryaev’s counting chamber at ×100 magnification. Smears of blood and BAL cell pellets were air-dried, fixed according to May–Grunwald for 3 min, and stained according to Romanowsky–Giemsa. After 30 min, the slides were washed, air-dried, and examined with immersion objective (×1000 total magnification). On each slide, a total of at least 100 cells were calculated.
The concentration of total protein in BAL supernatants was determined spectrophotometrically with the pyrogallol red method, and the protein in the blood plasma was determined with the biuret method using commercial kits (Vital, Saint Petersburg, Russia) and bovine serum albumin as the standard. The lung permeability index was calculated as the protein concentration in the BAL to plasma ratio.
Morphological markers of inflammation in lung tissue were assessed in a semi-quantitative way on paraffin sections stained with hematoxylin and eosin. The sections were examined under a light microscope (Zeiss, Germany) by a double-blind method. The score of inflammation was determined as follows: 0—the presence of single inflammatory cells; 1—weak inflammation, inflammatory cells infiltrate no more than 10% of the lung tissue, including interalveolar cell partitions; 2—moderate inflammation, inflammatory cells infiltrate no more than 50% of the structures of the lung, but the interstitial tissue is identified; 3—severe inflammation, inflammatory cells densely infiltrate more than 50% of the lung tissue and airways.

[3] = 24 h after LPS, dexamethasone 5 mg/kg, 9g 30 mg/kg i.p.

## Cc1nc2nnnn2c(NCCc2ccc(O)cc2)c1[N+](=O)[O-] [Compound 9g, N-[2-(4-Hydroxyphenyl)ethyl]-5-methyl-6-nitrotetrazolo-[1,5-a]pyrimidin-7-amine]
[1]
  CC50 at 24 h: > 100 µM
[2]; up to 72 h of incubation
  Cytotoxic properties during the phagocytosis experiment (LDH): No cytotoxic properties were noted
[2]; up to a concentration of 50 μM
  Effect on viability of the macrophages: did not affect the viability
C57BL/6J mice; 24 h after LPS
  Blood leukocyte subpopulations: normalized leukocyte subpopulations to the values of intact animals
  CD68+ cells in lung tissue, immunostaining: decreased the immunoreactivity of the lung tissue
C57BL/6J mice; 24 h after LPS, H&E, semi-quantitative
  LPS-induced lung lesions, histologic scoring (hemorrhage and neutrophil infiltration): significantly ameliorated
C57BL/6J mice; [3]
  Blood plasma IL-6 level: normalized the blood plasma IL-6 level
  Permeability of pulmonary vessels (lung permeability index): prevent the increase in permeability of pulmonary vessels
C57BL/6J mice; 24 h after LPS, dexamethasone 5 mg/kg, 9g 30 mg/kg i.p. 1 h before LPS
  Horizontal motor activity, open field test: restored motor activity of animals comparably to dexamethasone
C57BL/6J mice; 24 h after LPS, monocytes in BAL increased
  Segmented neutrophils count in BAL (in words): significantly decreased the segmented neutrophils count
C57BL/6J mice; LPS-treated mice, dexamethasone 5 mg/kg, 9g 30 mg/kg i.p.
  Spleen mass and lymphocyte content (markers of immunodepression): nonsignificant
C57BL/6J mice; body temperature determined rectally
  LPS-induced hypothermia: attenuated LPS-induced hypothermia
C57BL/6J mice; bronchoalveolar lavage 24 h after LPS, dexamethasone 5 mg/kg, 9g 30 mg/kg i.p.
  Segmented neutrophils, share of BAL cells: 37.6%
C57BL/6J mice; dexamethasone 5 mg/kg, 9g 30 mg/kg i.p.
  Number of center entries and time in the center, open field test: restored the number of center entries and time in the center to intact levels
